The subject of data set [1] is HBeAg (surrogate marker for cccDNA) in HepDES19 cells. Kind of data set: Engineered HepDES19 primary screen assay (HBeAg ELISA). It is filed as cell-based, HBV. Particulars: Hepatitis B virus, HepDES19, 120 h, read-out: IC50 (HBeAg level, HepDES19 primary screen assay), HepDES19 cells, 5 days compound incubation, HBeAg ELISA. An outline of the steps:
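IC50 values come from 4-parameter logistic fits of HBeAg ELISA signal, the cccDNA surrogate, with CCK-8 run in parallel for viability. Compounds at half-log dilutions with 1% DMSO were applied for 5 days at 37 °C to HepDES19 cells previously cultured 8 days without Tet.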

In data set [2] the test system is HBsAg in HBV-infected PHH. The experiment in a line: Cryopreserved primary human hepatocytes (PHH) HBV infection assay, extracellular HBsAg (CLIA). Particulars: Hepatitis B virus, Hepatocyte, 216 h, read-out: HBsAg IC50, Cryopreserved PHH infected with HBV, 9 days post-compound treatment, extracellular HBsAg. It is filed as cell-based. The method, boiled down:
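Cryopreserved PHH were infected with 5.8×10^6 HBV genome equivalents in medium with 4% PEG8000 and 1% DMSO. After 9 days of treatment, extracellular HBsAg was measured by CLIA, and IC50 was derived from a 4-parameter logistic fit.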

Data set [3] in a line: Human microsome stability assay. It is filed as in vitro ADME. The note with it: human liver microsomes, 1 μM test compound, 0.5 mg/mL microsomal protein, 37° C., pH 7.4, 0-30 minutes. An outline of the steps: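 Parent compound remaining was measured by LC-MS/MS at 0, 3, 6, 9, 15 and 30 min, following ACN quench. Reactions held 1 μM compound and 0.5 mg/mL human liver microsomal protein in pH 7.4 phosphate buffer at 37 °C, started by NADPH regeneration (1 mM NADP, 1 mM MgCl2); controls lacked NADPH.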
For orientation: Liver microsomes are vesicles of endoplasmic reticulum, rich in cytochrome P450 enzymes.

As for `CCOc1cc(OCCO[C@H]2C[C@@H](C(=O)O)C2)c(-c2cc(=O)c3cccc(Cl)c3o2)cc1OC` [Example C078, Cis-3-[2-[2-(8-chloro-4-oxo-chromen-2-yl)-5-ethoxy-4-methoxy-phenoxy]ethoxy]cyclobutanecarboxylic acid], the 50% inhibitory concentration (IC50) in data set [1] came out at 15 µM; in data set [2], 6.32 µM. Also, the “Clearance of Human microsome” value in data set [3] stood at 0.369 L/h/kg.
The corresponding values for `COc1cc(-c2cc(=O)c3cccc(Cl)c3o2)c(OCCO[C@H]2C[C@@H](C(=O)O)C2)cc1OCC(F)(F)F` [Example C080, Cis-3-[2-[2-(8-chloro-4-oxo-chromen-2-yl)-4-methoxy-5-(2,2,2-trifluoroethoxy)phenoxy]ethoxy]cyclobutanecarboxylic acid] are 4 µM, 3.51 µM and 0.369 L/h/kg.
The corresponding values for `COc1cc(-c2cc(=O)c3cccc(Cl)c3o2)c(OCCO[C@H]2C[C@@H](C(=O)O)C2)cc1OC(F)F` [Example C081, Cis-3-[2-[2-(8-chloro-4-oxo-chromen-2-yl)-5-(difluoromethoxy)-4-methoxy-phenoxy]ethoxy]cyclobutanecarboxylic acid] are 0.779 µM, 8.77 µM and 0.369 L/h/kg.
The corresponding values for `COc1cc(OCCO[C@H]2C[C@@H](C(=O)O)C2)c(-c2cc(=O)c3cccc(Cl)c3o2)cc1OCC1CC1` [Example C082, cis-3-[2-[2-(8-chloro-4-oxo-chromen-2-yl)-4-(cyclopropylmethoxy)-5-methoxy-phenoxy]ethoxy]cyclobutanecarboxylic acid] are 3.97 µM, 9.52 µM and 0.369 L/h/kg.
In the case of `CCOc1cc(-c2cc(=O)c3cccc(Cl)c3o2)c(OCCO[C@H]2C[C@@H](C(=O)O)C2)cc1OC` [Example C084, cis-3-[2-[2-(8-chloro-4-oxo-chromen-2-yl)-4-ethoxy-5-methoxy-phenoxy]ethoxy]cyclobutanecarboxylic acid], the values for the IC50 in data set [1] and in data set [2] were 15.1 µM and 5.21 µM, respectively. Also, in data set [3], the “Clearance of Human microsome” value was determined as 0.369 L/h/kg.
Turning to `COc1cc(OCCO[C@H]2C[C@@H](C(=O)O)C2)c(-c2cc(=O)c3cccc(Cl)c3o2)cc1OCC(F)(F)F` [Example C085, cis-3-[2-[2-(8-chloro-4-oxo-chromen-2-yl)-5-methoxy-4-(2,2,2-trifluoroethoxy)phenoxy]ethoxy]cyclobutanecarboxylic acid], the IC50 stood at 0.271 µM in data set [1] and 9.02 µM in data set [2]. In data set [3], the “Clearance of Human microsome” value was 0.369 L/h/kg.
Take `COc1cc(OCCO[C@H]2C[C@@H](C(=O)O)C2)c(-c2cc(=O)c3cccc(Cl)c3o2)cc1OC(F)F` [Example C086, cis-3-[2-[2-(8-chloro-4-oxo-chromen-2-yl)-4-(difluoromethoxy)-5-methoxy-phenoxy]ethoxy]cyclobutanecarboxylic acid]: the results for the IC50 in data set [1] and in data set [2] were 5.03 µM and 5.46 µM, respectively. The “Clearance of Human microsome” value in data set [3] is 0.369 L/h/kg.
Regarding `COc1cc(OCCO[C@H]2C[C@@H](C(=O)O)C2)c(-c2cc(=O)c3c(C(F)(F)F)ccc(Cl)c3o2)cc1OC` [Example C096, Cis-3-[2-[2-[8-chloro-4-oxo-5-(trifluoromethyl)chromen-2-yl]-4,5-dimethoxy-phenoxy]ethoxy]cyclobutanecarboxylic acid], the IC50 in data set [1] was determined as 3.48 µM; in data set [2] it was 7.78 µM. For the same molecule, the “Clearance of Human microsome” value in data set [3] worked out at 0.369 L/h/kg.
Consider `O=C(O)C1CC(OCCCOc2cc(C(F)(F)F)ccc2-c2cc(=O)c3cccc(Cl)c3o2)C1` (stereo not drawn) [Example C103, 3-[3-[2-(8-chloro-4-oxo-chromen-2-yl)-5-(trifluoromethyl)phenoxy]propoxy]cyclobutanecarboxylic acid], for which the values for the IC50 in data set [1] and in data set [2] were 2.28 µM and 7.56 µM, respectively. Moreover, the “Clearance of Human microsome” value in data set [3] came to 0.369 L/h/kg.
The corresponding values for `O=C(O)COCC(O)COc1cc(Br)ccc1-c1cc(=O)c2cccc(Cl)c2o1` (stereo not drawn) [Example C113, 2-[3-[5-bromo-2-(8-chloro-4-oxo-chromen-2-yl)phenoxy]-2-hydroxy-propoxy]acetic acid] are 1.28 µM, 8.89 µM and 0.369 L/h/kg.
The corresponding values for `COc1cc(OCCO[C@H]2C[C@@H](C(=O)NS(=O)(=O)C3CC3)C2)c(-c2cc(=O)c3cccc(Cl)c3o2)cc1OC` [Example C119, Cis-3-[2-[2-(8-chloro-4-oxo-chromen-2-yl)-4,5-dimethoxy-phenoxy]ethoxy]-N-cyclopropylsulfonyl-cyclobutanecarboxamide] are 3.48 µM, 7.21 µM and 0.383 L/h/kg.
The corresponding values for `CS(=O)(=O)NC(=O)COCCOc1cc(C(F)(F)F)ccc1-c1cc(=O)c2cccc(Cl)c2o1` [Example C120, 2-[2-[2-(8-chloro-4-oxo-chromen-2-yl)-5-(trifluoromethyl)phenoxy]ethoxy]-N-methylsulfonyl-acetamide] are 1.05 µM, 4.12 µM and 0.369 L/h/kg.
For the molecule `CS(=O)(=O)NC(=O)[C@H]1C[C@@H](OCCOc2cc(Br)ccc2-c2cc(=O)c3cccc(Cl)c3o2)C1` [Example C122, Cis-3-[2-[5-bromo-2-(8-chloro-4-oxo-chromen-2-yl)phenoxy]ethoxy]-N-methylsulfonyl-cyclobutanecarboxamide], the IC50 in data set [1] is 1.05 µM; in data set [2], 4.81 µM. In data set [3], the “Clearance of Human microsome” value turned out to be 0.439 L/h/kg.
Taken in the same sequence, the figures for `COc1cc(OCCO[C@H]2C[C@@H](C(=O)NS(C)(=O)=O)C2)c(-c2cc(=O)c3cccc(Cl)c3o2)cc1OC` [Example C125, 3-[2-[2-(8-chloro-4-oxo-chromen-2-yl)-4,5-dimethoxy-phenoxy]ethoxy]-N-methylsulfonyl-cyclobutanecarboxamide] were 4.91 µM, 7.17 µM and 0.369 L/h/kg.

One may read the IC50 as the concentration that gives 50% inhibition.

The values above are taken from patent US11708344B2, “Flavone derivatives for the treatment and prophylaxis of hepatitis B virus disease” (Hoffmann-La Roche Inc., priority 2018, dated 2023).
